# Results reported in ChEMBL document CHEMBL3132769, “Fragment growing to retain or alter the selectivity of anchored kinase hinge-binding fragments” (Medchemcomm, 2014).
# Columns and labels:
# [1] = target: Serine/threonine-protein kinase MARK2 (Homo sapiens) (UniProt Q7KZI7); test: Inhibition of human full length MARK2 expressed in baculovirus assessed as substrate phosphorylation using fluorescence-labelled peptides as substrate at 0.06 uM after 90 mins by microfluidic peptide phosphorylation assay
# [2] = target: Serine/threonine-protein kinase PAK 2 (Homo sapiens) (UniProt Q13177); test: Inhibition of human truncated PAK2 expressed in Escherichia coli cell assessed as substrate phosphorylation using fluorescence-labelled peptides as substrate at 0.06 uM after 90 mins by microfluidic peptide phosphorylation assay
# [3] = target: T1, Testis-specific serine/threonine-protein kinase 1 (Homo sapiens) (UniProt Q9BXA7); test: Inhibition of human full length TSSK1 expressed in baculovirus assessed as substrate phosphorylation using fluorescence-labelled peptides as substrate at 0.06 uM after 90 mins by microfluidic peptide phosphorylation assay
# T1 sequence (whole entry): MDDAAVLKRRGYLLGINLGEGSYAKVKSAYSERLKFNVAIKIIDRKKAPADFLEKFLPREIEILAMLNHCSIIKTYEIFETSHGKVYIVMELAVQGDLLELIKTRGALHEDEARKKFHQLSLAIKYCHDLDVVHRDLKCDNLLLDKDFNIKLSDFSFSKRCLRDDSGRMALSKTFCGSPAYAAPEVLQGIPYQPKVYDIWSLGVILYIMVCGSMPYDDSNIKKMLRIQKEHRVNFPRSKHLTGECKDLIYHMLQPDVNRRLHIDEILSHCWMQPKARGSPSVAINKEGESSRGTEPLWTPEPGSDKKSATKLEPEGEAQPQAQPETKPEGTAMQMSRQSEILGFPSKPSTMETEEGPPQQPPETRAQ
# [4] = target: Glycogen synthase kinase-3 beta (Homo sapiens) (UniProt P49841); test: Inhibition of human full length GSK-3 beta expressed in baculovirus assessed as substrate phosphorylation using fluorescence-labelled peptides as substrate at 70 uM after 90 mins by microfluidic peptide phosphorylation assay
# [5] = target: Ribosomal protein S6 kinase alpha-3 (Homo sapiens) (UniProt P51812); test: Inhibition of human full length RSK2 expressed in baculovirus assessed as substrate phosphorylation using fluorescence-labelled peptides as substrate at 0.2 uM after 90 mins by microfluidic peptide phosphorylation assay
# [6] = target: Fibroblast growth factor receptor 3 (Homo sapiens) (UniProt P22607); test: Inhibition of human FGFR3 catalytic domain expressed in baculovirus assessed as substrate phosphorylation using fluorescence-labelled peptides as substrate at 0.2 uM after 90 mins by microfluidic peptide phosphorylation assay
# [7] = target: T2, Testis-specific serine/threonine-protein kinase 2 (Homo sapiens) (UniProt Q96PF2); test: Inhibition of human full length TSSK2 expressed in baculovirus assessed as substrate phosphorylation using fluorescence-labelled peptides as substrate at 95 uM after 90 mins by microfluidic peptide phosphorylation assay
# T2 sequence (whole entry): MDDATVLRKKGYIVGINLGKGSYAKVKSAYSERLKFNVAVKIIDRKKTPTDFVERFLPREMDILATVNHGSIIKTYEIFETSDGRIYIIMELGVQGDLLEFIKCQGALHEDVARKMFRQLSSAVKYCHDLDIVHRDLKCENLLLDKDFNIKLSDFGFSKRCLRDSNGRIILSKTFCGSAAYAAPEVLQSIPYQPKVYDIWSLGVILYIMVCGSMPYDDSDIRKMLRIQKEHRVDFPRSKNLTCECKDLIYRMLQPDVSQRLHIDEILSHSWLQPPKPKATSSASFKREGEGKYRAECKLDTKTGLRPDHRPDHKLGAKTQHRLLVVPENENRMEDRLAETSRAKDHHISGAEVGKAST
# [8] = target: T1, Testis-specific serine/threonine-protein kinase 1 (Homo sapiens); test: Inhibition of human full length TSSK1 expressed in baculovirus assessed as substrate phosphorylation using fluorescence-labelled peptides as substrate at 95 uM after 90 mins by microfluidic peptide phosphorylation assay
# [9] = target: Protein kinase C gamma type (Homo sapiens) (UniProt P05129); test: Inhibition of human truncated PKC gamma expressed in baculovirus assessed as substrate phosphorylation using fluorescence-labelled peptides as substrate at 95 uM after 90 mins by microfluidic peptide phosphorylation assay
# [10] = target: RAF proto-oncogene serine/threonine-protein kinase (Homo sapiens) (UniProt P04049); test: Inhibition of human truncated c-Raf expressed in baculovirus assessed as substrate phosphorylation using fluorescence-labelled peptides as substrate at 1000 uM after 90 mins by microfluidic peptide phosphorylation assay
# [11] = system: T3, Receptor-type tyrosine-protein kinase FLT3 (Homo sapiens), P36888 [D835Y]; test: Inhibition of human FLT3 D835Y mutant catalytic domain expressed in baculovirus assessed as substrate phosphorylation using fluorescence-labelled peptides as substrate at 2 uM after 90 mins by microfluidic peptide phosphorylation assay
# T3 sequence (whole entry): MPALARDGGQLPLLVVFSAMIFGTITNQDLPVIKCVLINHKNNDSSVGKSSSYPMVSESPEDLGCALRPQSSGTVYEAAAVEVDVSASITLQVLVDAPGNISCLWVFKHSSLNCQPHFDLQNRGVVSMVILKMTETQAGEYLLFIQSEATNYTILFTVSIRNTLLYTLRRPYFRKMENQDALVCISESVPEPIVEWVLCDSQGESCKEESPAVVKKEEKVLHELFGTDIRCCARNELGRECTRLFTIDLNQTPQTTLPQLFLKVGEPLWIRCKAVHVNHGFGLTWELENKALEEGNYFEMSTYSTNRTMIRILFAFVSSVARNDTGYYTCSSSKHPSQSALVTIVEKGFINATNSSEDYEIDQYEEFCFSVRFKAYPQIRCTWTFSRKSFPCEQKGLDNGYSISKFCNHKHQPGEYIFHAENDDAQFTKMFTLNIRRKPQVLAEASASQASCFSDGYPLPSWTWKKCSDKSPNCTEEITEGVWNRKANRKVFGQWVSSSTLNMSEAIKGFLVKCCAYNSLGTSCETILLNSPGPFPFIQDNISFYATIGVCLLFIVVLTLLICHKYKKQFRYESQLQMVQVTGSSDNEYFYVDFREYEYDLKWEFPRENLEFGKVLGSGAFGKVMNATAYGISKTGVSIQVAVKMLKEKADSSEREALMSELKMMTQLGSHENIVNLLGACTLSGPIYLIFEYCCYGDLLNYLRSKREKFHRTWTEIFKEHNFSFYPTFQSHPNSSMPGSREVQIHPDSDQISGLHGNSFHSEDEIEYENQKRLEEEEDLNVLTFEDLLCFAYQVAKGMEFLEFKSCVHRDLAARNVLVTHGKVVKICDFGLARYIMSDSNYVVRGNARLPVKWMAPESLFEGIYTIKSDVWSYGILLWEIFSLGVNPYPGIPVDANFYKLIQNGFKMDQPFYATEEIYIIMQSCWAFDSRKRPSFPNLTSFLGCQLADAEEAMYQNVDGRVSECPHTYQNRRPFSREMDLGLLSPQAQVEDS
# [12] = target: Ribosomal protein S6 kinase alpha-3 (Homo sapiens) (UniProt P51812); test: Inhibition of human full length RSK2 expressed in baculovirus assessed as substrate phosphorylation using fluorescence-labelled peptides as substrate at 0.1 uM after 90 mins by microfluidic peptide phosphorylation assay
# Ribosomal protein S6 kinase alpha-3 (Homo sapiens), sequence (P51812 whole entry, the tested form may be a part): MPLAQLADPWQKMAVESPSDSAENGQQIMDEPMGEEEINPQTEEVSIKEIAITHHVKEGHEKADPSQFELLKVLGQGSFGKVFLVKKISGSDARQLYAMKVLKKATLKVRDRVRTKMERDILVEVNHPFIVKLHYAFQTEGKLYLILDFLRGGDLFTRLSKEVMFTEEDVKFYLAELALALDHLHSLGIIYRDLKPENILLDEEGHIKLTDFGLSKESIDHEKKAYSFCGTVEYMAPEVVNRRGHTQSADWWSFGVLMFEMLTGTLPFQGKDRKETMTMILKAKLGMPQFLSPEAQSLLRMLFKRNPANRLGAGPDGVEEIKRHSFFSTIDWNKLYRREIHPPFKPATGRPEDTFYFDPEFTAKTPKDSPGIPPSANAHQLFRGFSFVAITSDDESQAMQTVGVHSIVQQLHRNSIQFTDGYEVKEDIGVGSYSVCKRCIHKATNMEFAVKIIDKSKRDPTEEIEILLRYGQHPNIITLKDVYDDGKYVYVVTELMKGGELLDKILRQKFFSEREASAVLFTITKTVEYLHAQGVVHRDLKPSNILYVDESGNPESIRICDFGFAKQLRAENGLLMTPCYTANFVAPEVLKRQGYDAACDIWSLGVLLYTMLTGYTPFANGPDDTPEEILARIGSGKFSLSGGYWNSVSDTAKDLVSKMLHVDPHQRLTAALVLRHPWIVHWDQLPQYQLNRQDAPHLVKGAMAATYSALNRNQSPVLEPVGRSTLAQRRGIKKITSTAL
# Fibroblast growth factor receptor 3 (Homo sapiens), sequence (P22607 23-806 limits assumed): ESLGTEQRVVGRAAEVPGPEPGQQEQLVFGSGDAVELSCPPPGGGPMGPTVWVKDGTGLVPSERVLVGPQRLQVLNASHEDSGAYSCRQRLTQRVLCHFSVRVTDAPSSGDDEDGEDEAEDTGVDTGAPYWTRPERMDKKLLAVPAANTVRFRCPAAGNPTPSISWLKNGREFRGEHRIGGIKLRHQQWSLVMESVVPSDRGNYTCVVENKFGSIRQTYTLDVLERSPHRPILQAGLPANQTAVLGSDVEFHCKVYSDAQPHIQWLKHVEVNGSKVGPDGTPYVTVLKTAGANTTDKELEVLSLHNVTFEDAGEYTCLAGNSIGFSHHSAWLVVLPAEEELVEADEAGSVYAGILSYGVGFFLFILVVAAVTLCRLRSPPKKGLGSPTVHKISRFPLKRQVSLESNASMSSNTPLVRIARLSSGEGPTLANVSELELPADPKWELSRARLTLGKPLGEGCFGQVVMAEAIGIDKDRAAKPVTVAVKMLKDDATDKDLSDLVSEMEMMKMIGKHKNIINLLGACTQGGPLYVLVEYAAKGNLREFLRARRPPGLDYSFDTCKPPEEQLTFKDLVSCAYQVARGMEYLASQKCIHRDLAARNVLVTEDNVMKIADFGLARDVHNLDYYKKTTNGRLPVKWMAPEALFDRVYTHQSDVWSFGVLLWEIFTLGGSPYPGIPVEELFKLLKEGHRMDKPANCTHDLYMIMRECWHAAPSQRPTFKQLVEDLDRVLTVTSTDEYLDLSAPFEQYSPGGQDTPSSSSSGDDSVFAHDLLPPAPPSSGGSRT
# Serine/threonine-protein kinase MARK2 (Homo sapiens), sequence (Q7KZI7 whole entry, the tested form may be a part): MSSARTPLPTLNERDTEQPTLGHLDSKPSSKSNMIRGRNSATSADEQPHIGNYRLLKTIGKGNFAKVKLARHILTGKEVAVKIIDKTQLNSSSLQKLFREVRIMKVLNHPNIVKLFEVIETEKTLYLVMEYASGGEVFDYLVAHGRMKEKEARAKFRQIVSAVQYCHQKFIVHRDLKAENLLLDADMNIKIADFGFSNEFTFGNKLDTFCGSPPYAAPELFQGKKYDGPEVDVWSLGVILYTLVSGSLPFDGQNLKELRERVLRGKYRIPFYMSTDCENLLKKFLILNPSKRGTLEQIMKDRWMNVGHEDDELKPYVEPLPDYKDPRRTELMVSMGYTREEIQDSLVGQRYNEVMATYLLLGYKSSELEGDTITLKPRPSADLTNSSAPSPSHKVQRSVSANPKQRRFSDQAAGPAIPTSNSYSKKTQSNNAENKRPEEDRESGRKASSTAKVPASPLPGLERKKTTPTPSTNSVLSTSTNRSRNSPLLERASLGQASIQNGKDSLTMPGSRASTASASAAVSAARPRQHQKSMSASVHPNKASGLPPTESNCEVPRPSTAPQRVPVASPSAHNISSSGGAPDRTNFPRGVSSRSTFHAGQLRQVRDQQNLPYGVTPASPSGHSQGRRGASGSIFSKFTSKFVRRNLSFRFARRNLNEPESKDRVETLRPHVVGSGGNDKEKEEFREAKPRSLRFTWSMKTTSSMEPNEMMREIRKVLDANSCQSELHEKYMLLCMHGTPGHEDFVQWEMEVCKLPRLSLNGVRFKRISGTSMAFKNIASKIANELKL
# Glycogen synthase kinase-3 beta (Homo sapiens), sequence (P49841 whole entry, looked up): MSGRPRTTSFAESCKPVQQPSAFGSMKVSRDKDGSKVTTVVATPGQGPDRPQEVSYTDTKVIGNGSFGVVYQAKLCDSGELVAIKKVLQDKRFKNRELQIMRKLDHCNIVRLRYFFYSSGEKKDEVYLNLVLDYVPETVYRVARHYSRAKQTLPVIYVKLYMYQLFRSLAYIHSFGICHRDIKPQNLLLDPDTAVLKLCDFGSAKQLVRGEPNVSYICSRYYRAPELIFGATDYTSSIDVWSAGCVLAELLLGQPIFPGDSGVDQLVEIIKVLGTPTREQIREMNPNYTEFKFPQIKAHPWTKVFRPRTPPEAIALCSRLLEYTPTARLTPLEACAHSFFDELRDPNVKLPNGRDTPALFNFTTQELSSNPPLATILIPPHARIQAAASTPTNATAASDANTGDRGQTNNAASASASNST
# Serine/threonine-protein kinase PAK 2 (Homo sapiens), sequence (Q13177 whole entry, the tested form may be a part): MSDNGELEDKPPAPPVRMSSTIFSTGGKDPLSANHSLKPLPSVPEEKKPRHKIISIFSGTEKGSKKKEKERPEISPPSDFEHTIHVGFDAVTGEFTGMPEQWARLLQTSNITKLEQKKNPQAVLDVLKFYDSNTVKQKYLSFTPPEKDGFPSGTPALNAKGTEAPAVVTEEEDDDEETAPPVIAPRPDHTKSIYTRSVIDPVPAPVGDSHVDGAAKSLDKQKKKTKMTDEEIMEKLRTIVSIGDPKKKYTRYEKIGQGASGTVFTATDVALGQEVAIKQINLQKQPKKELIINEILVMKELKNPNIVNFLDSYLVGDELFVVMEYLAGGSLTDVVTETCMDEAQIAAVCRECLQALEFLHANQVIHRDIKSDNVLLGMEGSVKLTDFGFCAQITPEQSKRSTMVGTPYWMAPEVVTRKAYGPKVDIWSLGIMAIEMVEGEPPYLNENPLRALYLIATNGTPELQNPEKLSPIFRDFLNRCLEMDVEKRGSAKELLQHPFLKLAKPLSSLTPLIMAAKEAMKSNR
# RAF proto-oncogene serine/threonine-protein kinase (Homo sapiens), sequence (P04049 whole entry, the tested form may be a part): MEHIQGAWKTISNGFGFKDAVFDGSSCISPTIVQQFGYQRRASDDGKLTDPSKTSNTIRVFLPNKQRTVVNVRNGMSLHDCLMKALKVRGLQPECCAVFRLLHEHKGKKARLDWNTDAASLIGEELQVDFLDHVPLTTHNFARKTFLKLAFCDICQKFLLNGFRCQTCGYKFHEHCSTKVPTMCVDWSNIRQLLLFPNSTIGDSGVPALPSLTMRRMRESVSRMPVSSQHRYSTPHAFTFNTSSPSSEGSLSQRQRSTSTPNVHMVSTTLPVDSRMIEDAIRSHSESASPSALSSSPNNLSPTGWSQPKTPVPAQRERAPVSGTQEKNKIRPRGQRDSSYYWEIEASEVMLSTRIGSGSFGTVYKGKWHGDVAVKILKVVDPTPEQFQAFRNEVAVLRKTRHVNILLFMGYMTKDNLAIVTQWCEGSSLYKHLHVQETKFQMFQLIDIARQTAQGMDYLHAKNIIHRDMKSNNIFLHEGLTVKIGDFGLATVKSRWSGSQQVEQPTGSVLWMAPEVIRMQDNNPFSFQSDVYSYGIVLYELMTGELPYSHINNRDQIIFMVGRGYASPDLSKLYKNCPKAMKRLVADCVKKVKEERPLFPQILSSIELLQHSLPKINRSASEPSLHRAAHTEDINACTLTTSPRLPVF
compound,measurement,setting,value
NC1(Cc2ccc(Cl)cc2)CCN(c2ncnc3[nH]ccc23)CC1,inhibition,[1],0%
same,inhibition,[2],1.5%
same,inhibition,[3],0%
CNCc1ccc(-c2ncnc3[nH]cnc23)cc1,inhibition,[4],37.5%
Clc1ccc(C2(c3ccc(-c4ncnc5[nH]cnc45)cc3)CCNCC2)cc1,inhibition,[5],55%
same,inhibition,[6],0%
NCCc1ccc(-c2ncnc3[nH]cnc23)cc1,inhibition,[7],23.5%
same,inhibition,[8],89%
same,inhibition,[9],71%
c1cnc2[nH]ccc2c1,inhibition,[10],20%
NC1CCN(c2ncnc3[nH]ccc23)CC1,inhibition,[11],0%
C[C@H](CN(C)C)Oc1nc(Nc2cc3cccc(Cl)c3cn2)cnc1C#N,inhibition,[12],59.5%
